Reference: patent US10865201B2, “Bicyclic compounds useful as GPR120 modulators” (Valo Health, Inc., priority 2016, dated 2020)

Tests used:
human GPR120 [1] = molecular target: T1, human GPR120 (Homo sapiens, UniProt Q5NUL3); test: Human GPR120 β-Arrestin Recruitment Assay; type: cell-based; details: CHO-K1 cells co-expressing ProLink-tagged human GPR120 and β-Arrestin 2/β-gal fusion; PathHunter; 90 minutes at 37° C.; read-out: β-Arr pEC50 (converted)
T1 construct: host or cells: CHO-K1
Text: This in vitro assay tests compounds' ability to activate intracellular signaling via β-Arrestin recruitment to heterologously expressed human GPR120. This functional cellular assay utilizes enzyme fragment complementation with β-galactosidase (β-gal) as a functional reporter (DiscoveRx PathHunter® β-Arrestin assay platform). The human GPR120 receptor (GenBank accession Number NM_181745) was fused in frame with the small enzyme fragment ProLink™ and co-expressed in CHO-K1 cells with a fusion protein of β-Arrestin 2 and the larger, N-terminal deletion mutant of β-gal. Activation by a GPR120 agonist stimulates binding of β-arrestin to the ProLink-tagged GPCR and forces complementation of the two enzyme fragments, resulting in the formation of an active β-gal enzyme. This interaction leads to an increase in enzyme activity that can be measured using chemiluminescent PathHunter® Detection Reagents.
One day prior to the assay, cells were seeded in a total volume of 20 μl of growth medium into white walled 384-well microplates and incubated at 37° C./5% CO2 overnight. On the day of the assay, growth medium was removed and 20 μl assay buffer (HBSS+10 mM HEPES+0.1% heat-inactivated BSA) were added to each well.
Test compounds were dissolved in 100% DMSO to a concentration of 10 mM to provide stock solutions. Serial dilutions were performed from stock solutions into assay buffer to obtain intermediate concentrations of 5-fold higher than the concentrations to be tested. 5 μl of the 5x compound solutions were added to the cells and the assay plates were incubated alt 37° C. for 90 minutes, The final concentration of compounds tested in the assay ranged from 1.5 nM to 100 μM. Following incubation, 12.5 μl of PathHunter® detection reagent were added to each well, and plates were incubated at room temperature for 60 minutes. Chemiluminescence was read using an EnVision plate reader (PerkinElmer), raw data were expressed as relative light units (RLU).
(§1) To determine agonist potencies (EC50 values), non-linear least-squares curve fits of the raw data (RLU) were performed in the GraphPad Prism software package, using the 4-parameter model with variable Hill Slope:
Reported below in Table 1 are pEC50 values (pEC50=−log(EC50) from curve fit) for compounds of Formula I in this assay, β-Arr pEC50.
T1 sequence (Q5NUL3 1-377 isoform Q5NUL3-1): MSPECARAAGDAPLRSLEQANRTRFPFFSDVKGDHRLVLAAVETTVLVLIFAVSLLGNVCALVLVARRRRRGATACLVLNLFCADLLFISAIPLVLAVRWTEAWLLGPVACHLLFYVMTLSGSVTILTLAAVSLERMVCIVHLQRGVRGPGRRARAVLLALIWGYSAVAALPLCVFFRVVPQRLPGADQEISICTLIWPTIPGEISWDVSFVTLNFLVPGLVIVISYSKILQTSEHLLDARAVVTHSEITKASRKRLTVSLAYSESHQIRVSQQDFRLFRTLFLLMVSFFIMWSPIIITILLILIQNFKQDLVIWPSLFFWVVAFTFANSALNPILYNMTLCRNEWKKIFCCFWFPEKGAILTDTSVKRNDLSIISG
T1 sequence (P32121 whole entry partner, the tested form may be a part): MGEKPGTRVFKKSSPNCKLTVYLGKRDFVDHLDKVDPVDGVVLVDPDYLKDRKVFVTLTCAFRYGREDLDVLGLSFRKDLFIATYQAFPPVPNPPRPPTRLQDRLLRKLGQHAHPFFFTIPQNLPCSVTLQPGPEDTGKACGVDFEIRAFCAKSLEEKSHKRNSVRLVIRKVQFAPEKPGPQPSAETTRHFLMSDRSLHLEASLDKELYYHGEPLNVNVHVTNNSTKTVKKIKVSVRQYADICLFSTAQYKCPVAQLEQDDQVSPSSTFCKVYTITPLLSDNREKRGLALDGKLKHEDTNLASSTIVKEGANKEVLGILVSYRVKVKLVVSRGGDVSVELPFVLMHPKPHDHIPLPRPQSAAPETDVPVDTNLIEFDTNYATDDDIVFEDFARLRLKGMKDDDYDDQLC

human GPR120 [2] = molecular target: T2, human GPR120 (Homo sapiens, UniProt Q5NUL3); test: Human GPR120 Calcium-Release Assay; type: cell-based; details: short variant of human GPR120 in CHO-K1 cells coexpressing Gα16 and mitochondrial apoaequorin; luminescence; read-out: Ca2+ pEC50 (converted)
T2 construct: expressed in transfected cells; host or cells: CHO-K1 coexpressing Gα16 and mitochondrial apoaequorin
T2 sequence (Q5NUL3 1-361): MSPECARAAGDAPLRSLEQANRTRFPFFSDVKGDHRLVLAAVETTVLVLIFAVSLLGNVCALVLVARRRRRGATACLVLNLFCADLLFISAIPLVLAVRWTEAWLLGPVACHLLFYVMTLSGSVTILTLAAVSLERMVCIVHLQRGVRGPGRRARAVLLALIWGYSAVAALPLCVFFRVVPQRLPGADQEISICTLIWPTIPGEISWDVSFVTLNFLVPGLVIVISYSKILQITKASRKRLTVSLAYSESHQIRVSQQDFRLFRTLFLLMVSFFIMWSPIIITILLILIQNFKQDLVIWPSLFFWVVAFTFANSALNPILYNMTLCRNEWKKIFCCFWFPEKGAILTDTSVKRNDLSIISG
Text: This in vitro assay tests compounds' ability to activate heterologously expressed human GPR120 via G-protein coupling leading to generation of inositol 1,4,5-triphosphate and mobilization of intracellular calcium. This functional cellular assay is based on the luminescence of mitochondrial aequorin following intracellular Ca^2+ release. Aequorin is a photoprotein isolated from the jellyfish Aequorea victoria. The active protein is formed in the presence of molecular oxygen from apoaequorin and its cofactor coelenterazine. Binding of Ca^2+ to the active protein induces a conformational change, resulting in oxidation of coelenterazine and subsequent blue luminescence.
The short variant of the human GPR120 receptor (GenBank accession Number AAI01176) was stably expressed in a CHO-K1 cell line coexpressing Gα16 and mitochondrial apoaequorin.
Cells were grown to mid-log phase in culture media without antibiotics, were detached with PBS/EDTA, centrifuged and resuspended in assay buffer (DMEM-F12 medium with 15 mM HEPES pH 7.0 and 0.1% protease free BSA) at a concentration of 10^6 cells/mL. Cells were incubated at room temperature for at least 4 hours with 5 μM coelenterazine h.
Test compounds were dissolved in 100% DMSO to a concentration of 20 mM to provide stock solutions. Serial dilutions were performed from stock solutions in 100% DMSO to obtain intermediate concentrations 200-fold higher than the concentrations to be tested. Each sample was diluted 100-fold into assay buffer. 50 μl of these compound solutions were dispensed into each well of 96-well assay plates. The final concentration of compounds tested in the assay ranged from 5 nM to 100 μM. α-Linolenic acid was used as a reference compound. Each test was performed in duplicate.
To start the assay, 50 μl of cell suspension were added to each well of the assay plate. The resulting luminescence was recorded using a Hamamatsu Functional Drug Screening System 6000 (FDSS 6000), and raw data were expressed as relative light units (RLU).
as §1
Reported below in Table 1 are pEC50 values (pEC50=−log(EC50) from curve fit) for representative compounds of Formula I in this assay, Ca2+pEC50.

## O=S1(=O)c2ccc(Oc3ccccc3)cc2CN1Cc1ccccc1 [Compound 2]
Human GPR120 [1]
  EC50: 0.501 µM
Human GPR120 [2]
  EC50: 1 µM

## O=S1(=O)c2ccc(Oc3cccc(Cl)c3)cc2CN1Cc1ccccc1 [Compound 3]
Human GPR120 [1]
  EC50: 0.158 µM
Human GPR120 [2]
  EC50: 3.98 µM

## O=S1(=O)c2ccc(Oc3ccc(Cl)cc3)cc2CN1Cc1ccccc1 [Compound 4]
Human GPR120 [1]
  EC50: 0.251 µM
Human GPR120 [2]
  EC50: 7.94 µM

## O=S1(=O)c2ccc(Oc3ccc(Cl)c(Cl)c3)cc2CN1Cc1ccccc1 [Compound 5]
Human GPR120 [1]
  EC50: 1.58 µM

## O=S1(=O)c2ccc(Oc3cccnc3)cc2CN1Cc1c(Cl)cccc1Cl [Compound 6]
Human GPR120 [1]
  EC50: > 10 µM

## O=S1(=O)c2ccc(Oc3cccnc3)cc2CN1Cc1c(F)cccc1Cl [Compound 7]
Human GPR120 [1]
  EC50: 3.98 µM
Human GPR120 [2]
  EC50: 2 µM

## O=S1(=O)c2ccc(Oc3cccnc3)cc2CN1Cc1ccccc1Cl [Compound 8]
Human GPR120 [1]
  EC50: 6.31 µM

## O=S1(=O)c2ccc(Oc3cccnc3)cc2CN1Cc1cccc(Cl)c1 [Compound 9]
Human GPR120 [1]
  EC50: 1.26 µM
Human GPR120 [2]
  EC50: 1.58 µM

## O=S1(=O)c2ccc(Oc3cccnc3)cc2CN1Cc1ccc(Cl)cc1 [Compound 10]
Human GPR120 [1]
  EC50: 3.16 µM
Human GPR120 [2]
  EC50: 2.51 µM

## O=S1(=O)c2ccc(Oc3cccnc3)cc2CN1Cc1ccc(Cl)cc1Cl [Compound 11]
Human GPR120 [1]
  EC50: 7.94 µM
Human GPR120 [2]
  EC50: 3.98 µM

## CN1Cc2cc(Oc3cccnc3)ccc2S1(=O)=O [Compound 12]
Human GPR120 [1]
  EC50: > 31.6 µM

## CC(c1ccccc1)N1Cc2cc(Oc3cccnc3)ccc2S1(=O)=O (centres unmarked) [Compound 13]
Human GPR120 [1]
  EC50: > 10 µM

## O=S1(=O)c2ccc(OC3CC(F)(F)C3)cc2CN1Cc1ccccc1 [Compound 14]
Human GPR120 [1]
  EC50: 12.6 µM
Human GPR120 [2]
  EC50: 20 µM

## O=S1(=O)c2ccc(OC3CCC3)cc2CN1Cc1ccccc1 [Compound 15]
Human GPR120 [1]
  EC50: 0.501 µM
Human GPR120 [2]
  EC50: 0.794 µM

## O=S1(=O)c2ccc(Oc3cccnc3)cc2CN1Cc1cc(OC(F)(F)F)ccc1Cl [Compound 16]
Human GPR120 [1]
  EC50: 3.16 µM

## O=S1(=O)c2ccc(Oc3cccnc3)cc2CN1CCc1ccccc1 [Compound 17]
Human GPR120 [1]
  EC50: > 10 µM

## O=S1(=O)c2ccc(Oc3cccnc3)cc2CN1Cc1cccnc1 [Compound 19]
Human GPR120 [1]
  EC50: 7.94 µM
Human GPR120 [2]
  EC50: 15.8 µM

## O=S1(=O)c2ccc(Oc3cccnc3)cc2CN1Cc1ccncc1 [Compound 20]
Human GPR120 [1]
  EC50: 3.16 µM
Human GPR120 [2]
  EC50: 10 µM

## O=C(O)c1ccc(CN2Cc3cc(Oc4cccnc4)ccc3S2(=O)=O)cc1 [Compound 21]
Human GPR120 [1]
  EC50: > 31.6 µM

## O=C(O)c1cccc(CN2Cc3cc(Oc4cccnc4)ccc3S2(=O)=O)c1 [Compound 22]
Human GPR120 [1]
  EC50: > 31.6 µM

## Cc1cc(Oc2cccnc2)cc2c1S(=O)(=O)N(Cc1ccccc1)C2 [Compound 23]
Human GPR120 [1]
  EC50: 2 µM

## O=S1(=O)c2ccc(Oc3cccnc3)cc2CN1c1ccccc1 [Compound 24]
Human GPR120 [1]
  EC50: 7.94 µM
Human GPR120 [2]
  EC50: 2.51 µM

## O=S1(=O)c2ccc(Oc3ccccc3)cc2CN1c1ccccc1 [Compound 25]
Human GPR120 [1]
  EC50: 1 µM
Human GPR120 [2]
  EC50: 1.26 µM

## O=S1(=O)c2ccc(Oc3ccncc3)cc2CN1c1ccccc1 [Compound 26]
Human GPR120 [1]
  EC50: > 31.6 µM

## O=S1(=O)c2ccc(Oc3ccccn3)cc2CN1c1ccccc1 [Compound 27]
Human GPR120 [1]
  EC50: > 31.6 µM

## O=S1(=O)c2ccc(Oc3cccc(Cl)c3)cc2CN1c1ccccc1 [Compound 28]
Human GPR120 [1]
  EC50: 0.794 µM
Human GPR120 [2]
  EC50: 39.8 µM

## O=S1(=O)c2ccc(Oc3ccc(Cl)c(Cl)c3)cc2CN1c1ccccc1 [Compound 29]
Human GPR120 [1]
  EC50: > 31.6 µM
Human GPR120 [2]
  EC50: > 100 µM

## O=S1(=O)c2ccc(OC3CCC3)cc2CN1c1ccccc1 [Compound 30]
Human GPR120 [1]
  EC50: 2.51 µM
Human GPR120 [2]
  EC50: > 100 µM

## O=S1(=O)c2ccc(Oc3cccnc3)cc2CN1c1cccnc1 [Compound 31]
Human GPR120 [1]
  EC50: > 10 µM

## O=S1(=O)c2ccc(Oc3cccnc3)cc2CN1c1cccc(Cl)c1 [Compound 32]
Human GPR120 [1]
  EC50: 1.58 µM

## O=S1(=O)c2ccc(Oc3cccnc3)cc2CN1c1cccc(OC(F)(F)F)c1 [Compound 33]
Human GPR120 [1]
  EC50: 5.01 µM

## O=S1(=O)c2ccc(Oc3cccnc3)cc2CN1c1ccccn1 [Compound 34]
Human GPR120 [1]
  EC50: 15.8 µM
Human GPR120 [2]
  EC50: 10 µM

## O=S1(=O)c2ccc(Oc3cccnc3)cc2CN1c1ccncc1 [Compound 35]
Human GPR120 [1]
  EC50: 12.6 µM

## O=C(O)c1cccc(N2Cc3cc(Oc4cccnc4)ccc3S2(=O)=O)c1 [Compound 36]
Human GPR120 [1]
  EC50: > 10 µM

## O=S1(=O)c2ccc(Oc3ccc(Cl)cc3)cc2CN1c1ccccc1 [Compound 37]
Human GPR120 [1]
  EC50: > 10 µM

## O=S1(=O)c2ccc(OCc3ccccc3)cc2CN1c1ccccc1 [Compound 38]
Human GPR120 [1]
  EC50: 5.01 µM

## O=S1(=O)c2ccc(OCc3cccnc3)cc2CN1c1ccccc1 [Compound 40]
Human GPR120 [1]
  EC50: > 31.6 µM

## O=S1(=O)c2ccc(Oc3cccnc3)cc2CN1c1cc(OC(F)(F)F)ccc1Cl [Compound 41]
Human GPR120 [1]
  EC50: > 31.6 µM

## O=S1(=O)c2ccc(Oc3cccnc3)cc2CN1C1CCC1 [Compound 44]
Human GPR120 [1]
  EC50: 12.6 µM

## O=C1c2ccc(Oc3cccnc3)cc2CN1c1ccccc1 [Compound 45]
Human GPR120 [1]
  EC50: > 10 µM

## O=C1c2ccc(Oc3cccnc3)cc2CN1Cc1ccccc1 [Compound 46]
Human GPR120 [1]
  EC50: 6.31 µM
Human GPR120 [2]
  EC50: 10 µM
